Converted amounts (≈) assume the structure as drawn. “Also recorded” adds a separate entry of the source. Counter-ions that a name gives are not always drawn.
What was measured:
[1] = tested on: S. Mutans, Strain OMZ-176E; assay: Serial dilution minimum inhibitory concentration (MIC) test, S. mutans; format: cell-based; settings: Streptococcus mutans, half strength brain-heart infusion broth, 37° C, 36 hours
Procedure: A quantitative serial dilution test may also be performed by the following procedure. A 20 mg/ml solution of the compound to be tested is prepared in a standard brain-heart infusion broth medium which has been diluted with water to one-half standard strength. Serial dilutions are prepared by adding 1 ml of the solution to a test tube containing 9 ml of medium. Five milliliters of the resulting solution are then added to another test tube containing 5 ml of the medium. The resulting solution is then again diluted by the same procedure. Ordinarily one tenfold dilution and four twofold dilutions are made. The procedure can be continued if more dilute solutions are required. Each of the series of tubes containing solutions of the compounds to be assayed is inoculated with two drops of a heavy culture of the chosen microorganisms in the brain-heart infusion broth. The tubes are incubated at 37° C for 36 hours and the most dilute solution showing no microbial growth is noted. The concentration of this solution is reported as the minimal inhibitory concentration (MIC). The minimum inhibitory concentration of a number of a number of compounds of this invention with respect to the microorganism S. Mutans, Strain OMZ-176E were determined by the procedure described above. Chlorhexidine diacetate, a commercially successful antimicrobial, was used as a control.

[2] = tested on: E. coli; assay: Serial dilution MIC test, E. coli; format: cell-based; settings: Escherichia coli, read-out: MINIMUM […]. E. coli; trypticase soy broth, 37° C, 36 hours; read-out: MINIMUM INHIBITORY CONCN. E. coli
Procedure: (§1) A quantitative serial dilution test may also be performed by the following procedure.
(§2) A 20 mg/ml solution of the compound to be tested is prepared in a standard brain-heart infusion broth medium which has been diluted with water to one-half standard strength.
(§3) Serial dilutions are prepared by adding 1 ml of the solution to a test tube containing 9 ml of medium. Five milliliters of the resulting solution are then added to another test tube containing 5 ml of the medium. The resulting solution is then again diluted by the same procedure. Ordinarily one tenfold dilution and four twofold dilutions are made. The procedure can be continued if more dilute solutions are required. Each of the series of tubes containing solutions of the compounds to be assayed is inoculated with two drops of a heavy culture of the chosen microorganisms in the brain-heart infusion broth. The tubes are incubated at 37° C for 36 hours and the most dilute solution showing no microbial growth is noted. The concentration of this solution is reported as the minimal inhibitory concentration (MIC).
(§4) A number of compounds of this invention were tested for in vitro antimicrobial activity against several pathogenic microorganisms using the above described procedure except that trypticase soy broth was used in place of half strength brain-heart infusion as the medium.

[3] = tested on: S. aureus; assay: Serial dilution MIC test, S. aureus; format: cell-based; settings: Staphylococcus aureus, read-out: MINIMUM […]. S. aureus; trypticase soy broth, 37° C, 36 hours; read-out: MINIMUM INHIBITORY CONCN. S. aureus
Procedure: as §1, §2, §3, §4

[4] = tested on: C. albicans; assay: Serial dilution MIC test, C. albicans; format: cell-based; settings: Candida albicans; trypticase soy broth, 37° C, 36 hours; read-out: MINIMUM INHIBITORY CONCN. C. albicans
Procedure: as §1, §2, §3, §4

[5] = tested on: Ps. aeruginosa; assay: Serial dilution MIC test, Ps. aeruginosa; format: cell-based; settings: Pseudomonas aeruginosa; trypticase soy broth, 37° C, 36 hours; read-out: MINIMUM INHIBITORY CONCN. Ps. aeruginosa
Procedure: as §1, §2, §3, §4

[6] = tested on: A. niger; assay: Serial dilution MIC test, A. niger; format: cell-based; settings: Aspergillus niger; trypticase soy broth, 37° C, 36 hours; read-out: MINIMUM INHIBITORY CONCN. A. niger
Procedure: as §1, §2, §3, §4

[7] = Staining of extracted human incisors in vitro; settings: ten days; for discoloration of teeth: 0.2% and 1% solutions, 10 minutes daily, saliva at 37° C
Procedure: The staining properties of the compound of Example II were compared with those of chlorhexidine by the following procedure. Test solutions were prepared containing 0.2% and 1% of chlorhexidine and 0.2% and 1% of the compound of Example II as the trimethanesulfonate salt. Extracted human incisors, which were used without cleaning or other treatment which would remove the dental pellicle, were suspended from wires. Daily, each tooth was immersed for 10 minutes in one of the test solutions, then suspended in whole stimulated saliva and incubated at 37° C for 24 hours.

[8] = cited from earlier work; for taste perception of foodstuffs: for several hours; for clinical antiplaque effectiveness: in vivo; for local irritation: oral mucosa and tongue; for staining of teeth, tongue, gums, oral mucosa: prolonged use

Q: With `CCCCCCCCNC(=O)NC(=N)NCCCN1CCN(CCCNC(=N)NC(=O)NCCCCCCCC)CC1` [1,4-bis[3-(n-octylcarbamylguanidino)propyl]piperazine dihydrochloride] as the compound, how does the MIC [1] read?
A: 2.5 µg/mL

Q: What does the source list for `N=C(NCCCN1CCN(CCCNC(=N)NC(=O)NCC2CCCCCC2)CC1)NC(=O)NCC1CCCCCC1` [1,4-bis[3-(cycloheptylmethylcarbamylguanidino)propyl]piperazine dimethanesulfonic acid salt]?
A: MIC [2]: 12.5 µg/mL; MIC [3]: 0.78 µg/mL; MIC [4]: 0.78 µg/mL; MIC [5]: 12.5 µg/mL; MIC [6]: 50 µg/mL

Q: What does the source list for `[H]/N=C(\N/C(=N/[H])NCCCCCCNC(=N)NC(=N)Nc1ccc(Cl)cc1)Nc1ccc(Cl)cc1` [chlorhexidine, 1,6-bis-(p-chlorophenylbiguanidino)hexane]?
A: discoloration of teeth [7]: greyish-brown discoloration; dependence of amount of discoloration on concentration ([7]; 0.2% versus 1%): independent of the concentration; MIC [2]: 1.56 µg/mL (≈ 3.09 µM); MIC [3]: 0.39 µg/mL (≈ 0.772 µM); MIC [4]: 3.12 µg/mL (≈ 6.17 µM); MIC [5]: 50 µg/mL (≈ 98.9 µM); MIC [6]: 12.5 µg/mL (≈ 24.7 µM); taste perception of foodstuffs [8]: alter taste perception of foodstuffs for several hours; clinical antiplaque effectiveness [8]: clinically effective antiplaque agents; local irritation [8]: produce local irritation of the oral mucosa and tongue; staining of teeth, tongue, gums, oral mucosa [8]: produce stains of various colors on the teeth, tongue, gums, oral mucosa; also recorded: staining of the teeth, tongue, and gums

Q: With `Cl.Cl.N=C(NCCCN1CCN(CCCNC(=N)NC(=O)NCC2CCCCC2)CC1)NC(=O)NCC1CCCCC1` [1,4-bis[(3-cyclohexylmethylcarbamylguanidino)propyl]piperazine dihydrochloride] as the compound, how does the MIC [1] read?
A: 1.25 µg/mL

Q: For `N=C(NCCCN1CCN(CCCNC(=N)NC(=O)NCC2CCCCC2)CC1)NC(=O)NCC1CCCCC1` [1,4-bis[3-(cyclohexylmethylcarbamylguanidino)propyl]piperazine dimethanesulfonic acid salt], which MIC [2] is on record?
A: 6.25 µg/mL

Q: What about the MIC [3] of the same compound?
A: 0.78 µg/mL

Q: What about the MIC [4] of the same compound?
A: 6.25 µg/mL

Q: What about the MIC [5] of the same compound?
A: 100 µg/mL

Q: And the MIC [6]?
A: 12.5 µg/mL

Q: Which MIC [1] does the source give for `CCCCC(CC)CNC(=O)NC(=N)NCCCN1CCN(CCCNC(=N)NC(=O)NCC(CC)CCCC)CC1` (stereo not shown) [1,4-bis[3-(2-ethylhexylcarbamylguanidino)propyl]piperazine dihydrochloride] here?
A: 5 µg/mL

Q: With `CC(C)(C)CC(C)(C)NC(=O)NC(=N)NCCCN1CCN(CCCNC(=N)NC(=O)NC(C)(C)CC(C)(C)C)CC1` [1,4-bis[3-(1,1,3,3-tetramethylbutylcarbamylguanidino)propyl]piperazine dihydrochloride] as the compound, how does the MIC [1] read?
A: 1.25 µg/mL

Q: Which results are given for `N=C(NCCCN1CCN(CCCNC(=N)NC(=O)Nc2ccc(Cl)cc2)CC1)NC(=O)Nc1ccc(Cl)cc1` [Example II]?
A: discoloration of teeth [7]: no signs of discoloration; MIC [1]: 0.156 to 0.312 µg/mL (≈ 0.264 to 0.527 µM)

Q: With `N=C(NCCCN1CCN(CCCNC(=N)NC(=O)NC23CC4CC(CC(C4)C2)C3)CC1)NC(=O)NC12CC3CC(CC(C3)C1)C2` [1,4-bis[3-((1-adamantyl)carbamylguanidino)propyl]piperazine dimethanesulfonic acid salt] as the compound, how does the MIC [2] read?
A: 25 µg/mL

Q: And the MIC [3]?
A: 6.25 µg/mL

Q: What about the MIC [4] of the same compound?
A: 12.5 µg/mL

Q: And the MIC [5]?
A: 50 µg/mL

Q: And the MIC [6]?
A: 12.5 µg/mL

Q: For `N=C(NCCN1CCN(CCNC(=N)NC(=O)NC23CC4CC(CC(C4)C2)C3)CC1)NC(=O)NC12CC3CC(CC(C3)C1)C2` [1,4-bis[2-((1-adamantyl)carbamylguanidino)ethyl]piperazine dimethanesulfonic acid salt], which MIC [2] is on record?
A: 12.5 µg/mL

Q: What about the MIC [3] of the same compound?
A: 0.39 µg/mL

Q: And the MIC [4]?
A: 0.78 µg/mL

Q: And the MIC [5]?
A: 6.25 µg/mL

Q: What about the MIC [6] of the same compound?
A: 50 µg/mL

Q: For `N=C(NCCCN1CCN(CCCNC(=N)NC(=O)NCCc2ccc(Cl)cc2)CC1)NC(=O)NCCc1ccc(Cl)cc1` [1,4-bis[3-(2-(4-chlorophenyl)ethylcarbamylguanidino)propyl]piperazine dihydrochloride], which MIC [1] is on record?
A: 1.25 µg/mL

Q: For `N=C(NCCCCCCNC(=N)NC(=N)Nc1ccc(Cl)cc1)NC(=N)Nc1ccc(Cl)cc1` [chlorhexidine diacetate, reference compound], which MIC [1] is on record?
A: 0.156 to 0.312 µg/mL

Q: Which results are given for `N=C(NCCCN1CCN(CCCNC(=N)NC(=O)NC2CCCCC2)CC1)NC(=O)NC1CCCCC1` [1,4-bis[3-(cyclohexylcarbamylguanidino)propyl]piperazine dimethanesulfonic acid salt]?
A: MIC [2]: 100 µg/mL; MIC [3]: 50 µg/mL; MIC [4]: 50 µg/mL; MIC [5]: 100 µg/mL; MIC [6]: 100 µg/mL

Q: For `CCCCC(CC)CNC(=N)NC(=N)NCCCCCCNC(=N)NC(=N)NCC(CC)CCCC` (stereo not shown) [alexidine, 1,6-bis-(2-ethylhexylbiguanidino)hexane], which “taste perception of foodstuffs” value [8] is on record?
A: alter taste perception of foodstuffs for several hours

Q: What about the clinical antiplaque effectiveness [8] of the same compound?
A: clinically effective antiplaque agents

Q: And the local irritation [8]?
A: produce local irritation of the oral mucosa and tongue

Q: What about the “staining of teeth, tongue, gums, oral mucosa” value [8] of the same compound?
A: produce stains of various colors on the teeth, tongue, gums, oral mucosa

Q: What does the source list for `CCCCCC(C)NC(=O)NC(=N)NCCCN1CCN(CCCNC(=N)NC(=O)NC(C)CCCCC)CC1` (stereo not shown) [1,4-bis[3-(1-methylhexyl)carbamylguanidino)propyl]piperazine dihydrochloride]?
A: MIC [2]: 12.5 µg/mL; MIC [3]: 1.56 µg/mL; MIC [4]: 6.25 µg/mL; MIC [5]: 25 µg/mL; MIC [6]: 25 µg/mL

Q: For `CN(CCNC(=N)NC(=O)Nc1ccc(Cl)cc1)CCN(C)CCNC(=N)NC(=O)Nc1ccc(Cl)cc1` [1,8-bis(4-chlorophenylcarbamylguanidino)-3,6-dimethyl-3,6-diazaoctane], which MIC [1] is on record?
A: 1.25 µg/mL (≈ 2.21 µM)

Q: For `CN(CCCNC(=N)NC(=O)Nc1ccc(Cl)cc1)CCCNC(=N)NC(=O)Nc1ccc(Cl)cc1` [1,7-bis(4-chlorophenylcarbamylguanidine)-4-methyl-4-azaheptane], which MIC [1] is on record?
A: 0.625 µg/mL (≈ 1.17 µM)

Reference: patent US4110328A, “Bis-carbamylguanidinoazaalkane antimicrobial compounds” (Cooper Laboratories, Inc., priority 1976, dated 1978)
